Measurements published in ChEMBL document CHEMBL1909046, “DrugMatrix in vitro pharmacology data”.

Experiments:
[1] = target: 5-hydroxytryptamine receptor 4 (Cavia porcellus, UniProt O70528); type: cell membranes, Dunkin-Hartley, Striatum, Membrane; conditions: for Ki: read-out: Ki; on all read-outs here: in other assays of this panel Not Active means under 50% inhibition at 10 µM
[2] = target: Vascular endothelial growth factor receptor 1 (Homo sapiens, UniProt P17948); type: cell-based; conditions: huvec; further: in other assays of this panel Not Active means under 50% inhibition at 10 µM
[3] = DRUGMATRIX: Interleukin IL-1 radioligand binding (ligand: [125I] interleukin 1beta); type: cell membranes, Membrane; conditions: nih3t3; Not Active = under 50% inhibition at 10 µM
[4] = DRUGMATRIX: Nicotinic Acetylcholine radioligand binding (ligand: [125I] Epibatidine); type: cell membranes, Membrane; conditions: imr-32; Not Active = under 50% inhibition at 10 µM
[5] = DRUGMATRIX: Phorbol Ester radioligand binding (ligand: [3H] PDBu); type: cell membranes, Mus musculus, ICR, Brain, Membrane; conditions: Not Active = under 50% inhibition at 10 µM
Adenosine receptor A3 = target: T1, Adenosine receptor A3 (Homo sapiens, UniProt P0DMS8); type: cell membranes, CHO-K1, Membrane; conditions: for Ki: read-out: Ki;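 on all read-outs here: radioligand binding assay with AB-MECA serving as the labeled ligand; in other assays of this panel Not Active means under 50% inhibition at 10 µM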
T1 sequence (P0DMS8 whole entry): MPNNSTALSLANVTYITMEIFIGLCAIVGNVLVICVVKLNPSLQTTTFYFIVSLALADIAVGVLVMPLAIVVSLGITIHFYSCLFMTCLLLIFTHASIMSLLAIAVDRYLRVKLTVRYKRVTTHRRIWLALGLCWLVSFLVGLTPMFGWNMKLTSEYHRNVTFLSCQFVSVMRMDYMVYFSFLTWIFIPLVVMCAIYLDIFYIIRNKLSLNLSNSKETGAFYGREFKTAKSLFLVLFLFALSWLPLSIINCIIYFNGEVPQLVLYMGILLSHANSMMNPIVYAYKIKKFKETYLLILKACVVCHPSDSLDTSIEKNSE

Estrogen receptor beta = Estrogen receptor beta (Homo sapiens, UniProt Q92731); conditions: sf9; further: in other assays of this panel Not Active means under 50% inhibition at 10 µM
Glucocorticoid receptor = target: T2, Glucocorticoid receptor (Homo sapiens, UniProt P04150); conditions: hela s3; further: in other assays of this panel Not Active means under 50% inhibition at 10 µM
T2 sequence (P04150 whole entry): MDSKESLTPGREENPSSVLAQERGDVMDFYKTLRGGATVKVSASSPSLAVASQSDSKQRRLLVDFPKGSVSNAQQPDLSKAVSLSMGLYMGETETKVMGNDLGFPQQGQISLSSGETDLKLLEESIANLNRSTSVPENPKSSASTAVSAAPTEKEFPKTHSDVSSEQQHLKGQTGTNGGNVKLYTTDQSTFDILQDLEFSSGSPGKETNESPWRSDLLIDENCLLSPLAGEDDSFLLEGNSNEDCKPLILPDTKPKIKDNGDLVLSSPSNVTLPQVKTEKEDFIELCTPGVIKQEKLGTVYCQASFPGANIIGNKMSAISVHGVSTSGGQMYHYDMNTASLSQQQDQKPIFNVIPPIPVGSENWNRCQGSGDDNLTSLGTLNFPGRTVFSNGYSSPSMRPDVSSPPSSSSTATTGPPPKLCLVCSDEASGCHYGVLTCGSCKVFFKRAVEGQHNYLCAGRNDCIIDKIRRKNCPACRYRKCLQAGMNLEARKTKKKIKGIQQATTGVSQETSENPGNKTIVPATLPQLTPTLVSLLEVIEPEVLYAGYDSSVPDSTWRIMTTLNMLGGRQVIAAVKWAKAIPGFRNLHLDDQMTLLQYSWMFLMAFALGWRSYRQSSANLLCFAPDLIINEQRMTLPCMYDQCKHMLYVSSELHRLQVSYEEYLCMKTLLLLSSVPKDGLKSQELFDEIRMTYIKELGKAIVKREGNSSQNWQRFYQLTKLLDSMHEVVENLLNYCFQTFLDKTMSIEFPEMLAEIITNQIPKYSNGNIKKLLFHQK

Chain of Vascular endothelial growth factor receptor 1 (P17948 whole entry): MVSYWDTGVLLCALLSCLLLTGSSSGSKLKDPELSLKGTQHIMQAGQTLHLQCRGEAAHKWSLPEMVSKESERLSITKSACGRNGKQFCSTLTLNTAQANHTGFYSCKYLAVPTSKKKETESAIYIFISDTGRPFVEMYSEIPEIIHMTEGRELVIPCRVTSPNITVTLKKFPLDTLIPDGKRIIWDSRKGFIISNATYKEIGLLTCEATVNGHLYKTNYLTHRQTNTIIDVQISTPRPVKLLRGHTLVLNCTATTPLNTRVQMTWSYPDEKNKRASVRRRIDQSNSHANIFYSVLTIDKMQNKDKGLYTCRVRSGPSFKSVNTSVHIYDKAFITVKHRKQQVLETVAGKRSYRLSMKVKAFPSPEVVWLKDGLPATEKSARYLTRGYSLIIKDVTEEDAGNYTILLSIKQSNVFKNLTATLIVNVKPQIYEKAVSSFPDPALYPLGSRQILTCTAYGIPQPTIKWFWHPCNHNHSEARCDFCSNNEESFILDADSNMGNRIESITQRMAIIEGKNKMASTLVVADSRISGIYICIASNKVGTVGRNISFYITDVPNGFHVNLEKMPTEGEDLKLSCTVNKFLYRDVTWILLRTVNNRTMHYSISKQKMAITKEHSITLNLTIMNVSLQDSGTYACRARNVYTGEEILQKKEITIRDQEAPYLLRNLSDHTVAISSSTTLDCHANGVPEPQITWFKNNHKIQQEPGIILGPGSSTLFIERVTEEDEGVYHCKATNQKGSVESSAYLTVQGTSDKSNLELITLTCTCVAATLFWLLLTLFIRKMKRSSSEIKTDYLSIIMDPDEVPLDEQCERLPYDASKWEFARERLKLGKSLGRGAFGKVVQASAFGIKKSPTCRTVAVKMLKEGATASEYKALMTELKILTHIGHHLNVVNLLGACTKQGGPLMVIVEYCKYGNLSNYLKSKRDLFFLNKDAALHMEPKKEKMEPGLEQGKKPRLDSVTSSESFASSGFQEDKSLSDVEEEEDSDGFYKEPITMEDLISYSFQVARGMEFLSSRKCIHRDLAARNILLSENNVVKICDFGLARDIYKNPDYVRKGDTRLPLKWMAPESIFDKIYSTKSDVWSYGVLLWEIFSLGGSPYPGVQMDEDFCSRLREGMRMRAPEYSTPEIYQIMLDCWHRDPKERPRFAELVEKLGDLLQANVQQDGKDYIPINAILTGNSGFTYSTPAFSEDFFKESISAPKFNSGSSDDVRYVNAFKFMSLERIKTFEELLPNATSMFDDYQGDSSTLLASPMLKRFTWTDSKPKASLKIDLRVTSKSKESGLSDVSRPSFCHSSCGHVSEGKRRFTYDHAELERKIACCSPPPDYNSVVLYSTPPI
Chain of 5-hydroxytryptamine receptor 4 (O70528 whole entry): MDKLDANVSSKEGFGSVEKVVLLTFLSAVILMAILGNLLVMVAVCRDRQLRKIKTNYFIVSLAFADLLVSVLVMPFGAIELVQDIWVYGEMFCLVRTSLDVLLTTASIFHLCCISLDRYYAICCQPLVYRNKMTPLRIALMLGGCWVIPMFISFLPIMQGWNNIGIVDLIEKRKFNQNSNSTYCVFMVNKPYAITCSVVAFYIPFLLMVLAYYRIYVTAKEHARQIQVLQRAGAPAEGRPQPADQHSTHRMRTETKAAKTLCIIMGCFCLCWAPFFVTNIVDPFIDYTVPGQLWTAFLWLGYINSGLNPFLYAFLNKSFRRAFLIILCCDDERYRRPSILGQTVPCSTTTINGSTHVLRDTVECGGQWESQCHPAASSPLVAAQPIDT
Chain of Estrogen receptor beta (Q92731 whole entry): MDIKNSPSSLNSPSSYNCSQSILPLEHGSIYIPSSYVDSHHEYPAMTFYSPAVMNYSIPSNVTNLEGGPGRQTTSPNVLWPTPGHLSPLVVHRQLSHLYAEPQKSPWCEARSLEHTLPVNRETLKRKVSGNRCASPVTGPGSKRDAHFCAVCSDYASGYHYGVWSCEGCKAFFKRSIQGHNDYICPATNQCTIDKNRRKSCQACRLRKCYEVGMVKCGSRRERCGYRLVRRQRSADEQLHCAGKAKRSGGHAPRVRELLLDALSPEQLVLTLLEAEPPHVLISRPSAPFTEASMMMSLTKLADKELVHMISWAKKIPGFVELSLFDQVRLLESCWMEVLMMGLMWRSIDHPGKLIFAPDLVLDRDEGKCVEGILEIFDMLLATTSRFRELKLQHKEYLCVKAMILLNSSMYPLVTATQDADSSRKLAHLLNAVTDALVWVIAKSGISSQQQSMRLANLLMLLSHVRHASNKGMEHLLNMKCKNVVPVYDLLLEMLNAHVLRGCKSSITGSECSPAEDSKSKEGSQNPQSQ

Row | SMILES | IC50 [1] | IC50 [2] | IC50 [3] | Ki [3] | IC50 [4] | Ki [4] | IC50 [5] | Ki [5] | IC50 (Adenosine receptor A3; cho-k1) | IC50 (Estrogen receptor beta) | IC50 (Glucocorticoid receptor) | IC50 ([1]; read-out: IC50) [µM] | Ki [1] [µM] | IC50 (Adenosine receptor A3; read-out: IC50) [µM] | Ki (Adenosine receptor A3) [µM]
1 | N[C@@H](Cc1ccc(N(CCCl)CCCl)cc1)C(=O)O | Not Active | Not Active | Not Active | Not Active | Not Active | Not Active | Not Active | Not Active | Not Active | Not Active | Not Active |  |  |  | 
2 | CC(C)N1CCN(c2ccc(OCC3COC(Cn4cncn4)(c4ccc(Cl)cc4Cl)O3)cc2)CC1 (stereo unspecified) [TERCONAZOLE] |  | Not Active |  |  |  |  | Not Active | Not Active | Not Active | Not Active |  | 14.8 | 2.46 |  | 
3 | Cc1nc2n(c(=O)c1CCN1CCC(c3noc4cc(F)ccc34)CC1)CCCC2 [RISPERIDONE] | Not Active | Not Active |  |  |  |  |  |  | Not Active |  | Not Active |  |  |  | 
4 | N[C@@H]1[C@H]2CN(c3nc4c(cc3F)c(=O)c(C(=O)O)cn4-c3ccc(F)cc3F)C[C@@H]12 [TROVAFLOXACIN] | Not Active | Not Active | Not Active | Not Active | Not Active | Not Active | Not Active | Not Active | Not Active | Not Active | Not Active |  |  |  | 
5 | O=c1ncn2nc(Sc3ccc(F)cc3F)ccc2c1-c1c(Cl)cccc1Cl [NEFLAMAPIMOD] | Not Active | Not Active | Not Active | Not Active | Not Active | Not Active | Not Active | Not Active |  | Not Active | Not Active |  |  | 8.55 | 4.83
6 | CCCCc1oc2ccccc2c1C(=O)c1cc(I)c(OCCN(CC)CC)c(I)c1 [AMIODARONE] | Not Active | Not Active |  |  |  |  |  |  |  | Not Active | Not Active |  |  |  | 
7 | CC[C@]1(O)C[C@H]2CN(CCc3c([nH]c4ccccc34)[C@@](C(=O)OC)(c3cc4c(cc3OC)N(C=O)[C@H]3[C@@](O)(C(=O)OC)[C@H](OC(C)=O)[C@]5(CC)C=CCN6CC[C@]43[C@@H]65)C2)C1 [VINCRISTINE] | Not Active | Not Active | Not Active | Not Active | Not Active | Not Active | Not Active | Not Active | Not Active |  | Not Active |  |  |  | 
8 | CO[C@H]1/C=C/O[C@@]2(C)Oc3c(C)c(O)c4c(O)c(c(/C=N/N5CCN(C)CC5)c(O)c4c3C2=O)NC(=O)/C(C)=C\C=C\[C@H](C)[C@H](O)[C@@H](C)[C@@H](O)[C@@H](C)[C@H](OC(C)=O)[C@@H]1C [RIFAMPIN] | Not Active | Not Active | Not Active | Not Active | Not Active | Not Active | Not Active | Not Active | Not Active | Not Active |  |  |  |  | 
9 | Cc1noc(NS(=O)(=O)c2ccc(N)cc2)c1C [SULFISOXAZOLE] | Not Active | Not Active | Not Active | Not Active | Not Active | Not Active | Not Active | Not Active | Not Active | Not Active |  |  |  |  | 
10 | NS(=O)(=O)c1cc2c(cc1Cl)NC(C(Cl)Cl)NS2(=O)=O (stereo unspecified) [TRICHLORMETHIAZIDE] | Not Active | Not Active | Not Active | Not Active | Not Active | Not Active | Not Active | Not Active | Not Active | Not Active |  |  |  |  | 
11 | N[C@@H](Cc1cc(I)c(Oc2ccc(O)c(I)c2)c(I)c1)C(=O)O [LIOTHYRONINE] | Not Active | Not Active |  |  |  |  |  |  | Not Active |  | Not Active |  |  |  | 
12 | CC1(C)O[C@@H]2C[C@H]3[C@@H]4CCC5=CC(=O)C=C[C@]5(C)[C@@]4(F)[C@@H](O)C[C@]3(C)[C@]2(C(=O)CO)O1 [TRIAMCINOLONE ACETONIDE] | Not Active | Not Active | Not Active | Not Active | Not Active | Not Active | Not Active | Not Active | Not Active | Not Active |  |  |  |  | 
13 | CSc1ccc(/C=C2/C(C)=C(CC(=O)O)c3cc(F)ccc32)cc1 [SULINDAC SULFIDE] | Not Active | Not Active | Not Active | Not Active | Not Active | Not Active | Not Active | Not Active |  | Not Active |  |  |  | 7.23 | 4.09
14 | Nc1c2c(nc3ccccc13)CCCC2 [TACRINE] | Not Active | Not Active | Not Active | Not Active | Not Active | Not Active | Not Active | Not Active | Not Active | Not Active |  |  |  |  | 
15 | CN1CCN(CCCN2c3ccccc3Sc3ccc(Cl)cc32)CC1 [PROCHLORPERAZINE] |  | Not Active |  |  |  |  |  |  | Not Active | Not Active | Not Active | 1.16 | 0.194 |  | 
16 | O=NN(CCCl)C(=O)NC1CCCCC1 [LOMUSTINE] | Not Active | Not Active | Not Active | Not Active | Not Active | Not Active | Not Active | Not Active | Not Active | Not Active |  |  |  |  | 
17 | Cc1c(C)c2c(c(C)c1O)CCC(C)(COc1ccc(CC3SC(=O)NC3=O)cc1)O2 (stereo unspecified) [TROGLITAZONE] | Not Active | Not Active | Not Active | Not Active | Not Active | Not Active | Not Active | Not Active |  | Not Active |  |  |  | 5.21 | 2.94
18 | NC[C@H]1CC[C@H](C(=O)O)CC1 [TRANEXAMIC ACID] | Not Active | Not Active | Not Active | Not Active | Not Active | Not Active | Not Active | Not Active | Not Active | Not Active |  |  |  |  | 
19 | OCCN(CCO)c1nc(N2CCCCC2)c2nc(N(CCO)CCO)nc(N3CCCCC3)c2n1 [DIPYRIDAMOLE] | Not Active | Not Active | Not Active | Not Active | Not Active | Not Active | Not Active | Not Active | Not Active | Not Active |  |  |  |  | 
20 | Cn1ccnc1S [METHIMAZOLE] | Not Active | Not Active | Not Active | Not Active | Not Active | Not Active | Not Active | Not Active | Not Active | Not Active |  |  |  |  | 
21 | CC/C(=C(\c1ccccc1)c1ccc(OCCN(C)C)cc1)c1ccccc1 [TAMOXIFEN] | Not Active | Not Active |  |  |  |  |  |  |  |  | Not Active |  |  | 3.7 | 2.09
22 | COc1c(C)c2c(c(O)c1C/C=C(\C)CCC(=O)O)C(=O)OC2 [MYCOPHENOLIC ACID] | Not Active | Not Active | Not Active | Not Active | Not Active | Not Active | Not Active | Not Active | Not Active | Not Active |  |  |  |  | 
23 | CC(=O)[C@@]1(O)CC[C@H]2[C@@H]3C[C@H](C)C4=CC(=O)CC[C@]4(C)[C@H]3CC[C@@]21C | Not Active | Not Active | Not Active | Not Active | Not Active | Not Active | Not Active | Not Active | Not Active | Not Active |  |  |  |  | 
24 | N#CC(C#N)=Cc1ccc(O)c(O)c1 [TYRPHOSTIN 23] | Not Active | Not Active | Not Active | Not Active | Not Active | Not Active | Not Active | Not Active | Not Active | Not Active |  |  |  |  | 
